From patent US20250011299A1, “PYRIDAZINYL AMINO DERIVATIVES AS ALK5 INHIBITORS” (CHIESI FARMACEUTICI S.P.A., priority 2021, published 2025)
Structures can show the parent of a compound that is named as a salt.

Each compound was assayed against T1, human ALK5 (Homo sapiens, UniProt P36897) (assay: ADP-GLO Kinases assay of ALK5 enzymatic activity). Conditions: purified recombinant human ALK5, TGFβ1 peptide substrate, pIC50 converted to pKi by Cheng-Prusoff, high ATP protocol (15 μM) for very potent compounds, 25° C.
T1 construct: human ALK5 (recombinant TGF β1 N-term GST-tagged, 80-end); GST (N); purchased
T1 sequence (P36897 80-503 limits assumed): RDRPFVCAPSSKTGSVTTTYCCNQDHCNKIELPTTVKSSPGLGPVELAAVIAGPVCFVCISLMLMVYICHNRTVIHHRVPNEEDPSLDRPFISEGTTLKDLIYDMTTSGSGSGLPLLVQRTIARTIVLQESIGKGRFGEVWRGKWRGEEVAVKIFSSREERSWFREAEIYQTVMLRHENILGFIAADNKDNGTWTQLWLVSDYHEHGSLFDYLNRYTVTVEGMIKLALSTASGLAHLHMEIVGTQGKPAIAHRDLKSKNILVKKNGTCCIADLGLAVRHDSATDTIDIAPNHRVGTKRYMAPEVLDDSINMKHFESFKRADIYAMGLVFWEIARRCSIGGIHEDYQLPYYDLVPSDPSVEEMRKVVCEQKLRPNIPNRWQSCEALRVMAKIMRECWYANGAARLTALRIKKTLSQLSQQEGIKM
Format: biochemical
In short: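 Purified ALK5 preincubated 15 min with compound, then reacted with substrate and ATP; ADP formed read by ADP-Glo luminescence after 120 min or 60 min reaction, all steps at 25° C. 11-point concentration-response; pIC50 converted to pKi via Cheng-Prusoff.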

| Ki [nM] | SMILES |
| --- | --- |
| ≤ 0.1 | COCCOc1nnc(-c2cc(Cl)ccc2F)cc1Nc1ccnc(NC(=O)CCN2CCOCC2)c1 [Example 34, N-(4-{[6-(5-chloro-2-fluorophenyl)-3-(2-methoxyethoxy)pyridazin-4-yl]amino}pyridin-2-yl)-3-(morpholin-4-yl)propanamide] |
| ≤ 0.1 | CN1CCN(CCC(=O)Nc2cc(Nc3cc(-c4cc(Cl)ccc4F)nnc3SCc3ccc(C(=O)O)cc3)ccn2)CC1 [Example 203, 4-({[6-(5-chloro-2-fluorophenyl)-4-({2-[3-(4-methylpiperazin-1-yl)propanamido]pyridin-4-yl}amino)pyridazin-3-yl]sulfanyl}methyl)benzoic acid] |
| ≤ 0.1 | COCCOc1nnc(-c2cc(Cl)ccc2F)cc1Nc1ccnc(NC(=O)CCN2CCN(C)CC2)c1 [Example 31, N-(4-{[6-(5-chloro-2-fluorophenyl)-3-(2-methoxyethoxy)pyridazin-4-yl]amino}pyridin-2-yl)-3-(4-methylpiperazin-1-yl)propanamide] |
| ≤ 0.1 | CN1CCCN(CCC(=O)Nc2cc(Nc3cc(-c4cc(Cl)ccc4F)nnc3SCCO)ccn2)CC1 [Example 84, N-(4-{[6-(5-chloro-2-fluorophenyl)-3-[(2-hydroxyethyl)sulfanyl]pyridazin-4-yl]amino}pyridin-2-yl)-3-(4-methyl-1,4-diazepan-1-yl)propanamide] |
| 0.126 to 0.316 | COc1nnc(-c2cc(Cl)ccc2F)cc1Nc1ccnc(N)c1 [Example 48, N4-[6-(5-chloro-2-fluorophenyl)-3-methoxypyridazin-4-yl]pyridine-2,4-diamine] |
| ≤ 0.1 | CN1CCC2(CCN(C(=O)Nc3cc(Nc4cc(-c5cc(Cl)ccc5F)nnc4SCCO)ccn3)CC2)C1 [Example 26, N-(4-{[6-(5-chloro-2-fluorophenyl)-3-[(2-hydroxyethyl)sulfanyl]pyridazin-4-yl]amino}pyridin-2-yl)-2-methyl-2,8-diazaspiro[4.5]decane-8-carboxamide] |
| ≤ 0.1 | COCCOc1nnc(-c2cc(Cl)ccc2F)cc1Nc1ccnc2cc(OCCN3CCN(C)CC3)ccc12 [Example 32, N-[6-(5-chloro-2-fluorophenyl)-3-(2-methoxyethoxy)pyridazin-4-yl]-7-[2-(4-methylpiperazin-1-yl)ethoxy]quinolin-4-amine] |
| ≤ 0.1 | O=C(CN1CCNCC1)Nc1cc(Nc2cc(-c3cc(Cl)ccc3F)nnc2SCCO)ccn1 [Example 60, N-(4-{[6-(5-chloro-2-fluorophenyl)-3-[(2-hydroxyethyl)sulfanyl]pyridazin-4-yl]amino}pyridin-2-yl)-2-(piperazin-1-yl)acetamide] |
| ≤ 0.1 | COC(=O)C1CN(c2nnc(-c3cc(Cl)ccc3F)cc2Nc2ccnc(NC(=O)CN3C[C@@H]4C[C@H]3CN4C)c2)C1 [Example 109, methyl 1-[6-(5-chloro-2-fluorophenyl)-4-[(2-{2-[(1S,4S)-5-methyl-2,5-diazabicyclo[2.2.1]heptan-2-yl]acetamido}pyridin-4-yl)amino]pyridazin-3-yl]azetidine-3-carboxylate] |
| ≤ 0.1 | CN1CCN(CCC(=O)Nc2cc(Nc3cc(-c4cc(Cl)ccc4F)nnc3N(C)C3CCOC3)ccn2)CC1 (racemic) [Example 105, N-(4-{[6-(5-chloro-2-fluorophenyl)-3-[methyl(oxolan-3-yl)amino]pyridazin-4-yl]amino}pyridin-2-yl)-3-(4-methylpiperazin-1-yl)propanamide] |
| ≤ 0.1 | CSc1nnc(-c2cc(Cl)ccc2F)cc1Nc1ccnc(NC(=O)CCN2CCN(C)CC2)c1 [Example 16, N-(4-{[6-(5-chloro-2-fluorophenyl)-3-(methylsulfanyl)pyridazin-4-yl]amino}pyridin-2-yl)-3-(4-methylpiperazin-1-yl)propanamide] |
| 0.126 to 0.316 | COC(=O)C1CN(CC(=O)Nc2cc(Nc3cc(-c4cc(Cl)ccc4F)nnc3OCCN(C)C)ccn2)CCN1C (centres unmarked) [Example 12, methyl 4-{[(4-{[6-(5-chloro-2-fluorophenyl)-3-[2-(dimethylamino)ethoxy]pyridazin-4-yl]amino}pyridin-2-yl)carbamoyl]methyl}-1-methylpiperazine-2-carboxylate] |
| ≤ 0.1 | COC(=O)C12CC(COc3nnc(-c4cc(Cl)ccc4F)cc3Nc3ccnc(NC(=O)[C@H]4C[C@@H](N5CCN(C)CC5)C4)c3)(C1)C2 [Example 126, Cis methyl 3-({[6-(5-chloro-2-fluorophenyl)-4-({2-[(1s,3s)-3-(4-methylpiperazin-1-yl)cyclobutaneamido]pyridin-4-yl}amino)pyridazin-3-yl]oxy}methyl)bicyclo[1.1.1]pentane-1-carboxylate] |
| ≤ 0.1 | CN1CCN(CCC(=O)Nc2cc(Nc3cc(-c4cc(Cl)ccc4F)nnc3N(C)CC3(C)CCOC3=O)ncn2)CC1 (racemic) [Example 137, N-(6-{[6-(5-chloro-2-fluorophenyl)-3-{methyl[(3-methyl-2-oxooxolan-3-yl)methyl]amino}pyridazin-4-yl]amino}pyrimidin-4-yl)-3-(4-methylpiperazin-1-yl)propanamide] |
| 0.126 to 0.316 | CN1CC(COc2nnc(-c3cc(Cl)ccc3F)cc2Nc2ccnc(NC(=O)C3CC3)c2)C1 [Example 44, N-(4-{[6-(5-chloro-2-fluorophenyl)-3-[(1-methylazetidin-3-yl)methoxy]pyridazin-4-yl]amino}pyridin-2-yl)cyclopropanecarboxamide] |
| 0.126 to 0.316 | COC(=O)C1CN(c2nnc(-c3cc(Cl)ccc3F)cc2Nc2ccnc(NC(=O)CCN3CCN(C)CC3)c2)C1 [Example 98, methyl 1-[6-(5-chloro-2-fluorophenyl)-4-({2-[3-(4-methylpiperazin-1-yl)propanamido]pyridin-4-yl}amino)pyridazin-3-yl]azetidine-3-carboxylate] |
| ≤ 0.1 | COCC1(CN(C)c2nnc(-c3cc(Cl)ccc3F)cc2Nc2ccnc(NC(=O)CCN3CCN(C)CC3)c2)CCOC1=O (single isomer, unassigned) [Example 201, N-(4-{[6-(5-chloro-2-fluorophenyl)-3-({[3-(methoxymethyl)-2-oxooxolan-3-yl]methyl}(methyl)amino)pyridazin-4-yl]amino}pyridin-2-yl)-3-(4-methylpiperazin-1-yl)propanamide] |
| ≤ 0.1 | CN1CCN(CCC(=O)Nc2cc(Nc3cc(-c4cc(Cl)ccc4F)nnc3NCc3cccc(O)c3)ccn2)CC1 [Example 101, N-(4-{[6-(5-chloro-2-fluorophenyl)-3-{[(3-hydroxyphenyl)methyl]amino}pyridazin-4-yl]amino}pyridin-2-yl)-3-(4-methylpiperazin-1-yl)propanamide] |
| ≤ 0.1 | O=C(Nc1cc(Nc2cc(-c3cc(Cl)ccc3F)nnc2SCCO)ncn1)[C@H]1C[C@@H](N2CCN(C3CC3)CC2)C1 [Example 181, Cis N-(6-{[6-(5-chloro-2-fluorophenyl)-3-[(2-hydroxyethyl)sulfanyl]pyridazin-4-yl]amino}pyrimidin-4-yl)-3-(4-cyclopropylpiperazin-1-yl)cyclobutane-1-carboxamide] |
| ≤ 0.1 | COc1nnc(-c2cc(Cl)ccc2F)cc1Nc1ccnc(NC(=O)CCN2CCN(CC(F)(F)F)CC2)c1 [Example 13, N-(4-{[6-(5-chloro-2-fluorophenyl)-3-methoxypyridazin-4-yl]amino}pyridin-2-yl)-3-[4-(2,2,2-trifluoroethyl)piperazin-1-yl]propanamide] |
| 0.126 to 0.316 | CN1CCN(CCC(=O)Nc2cc(Nc3cc(-c4cc(Cl)ccc4F)nnc3OCCN)ccn2)CC1 [Example 8, N-(4-{[3-(2-aminoethoxy)-6-(5-chloro-2-fluorophenyl)pyridazin-4-yl]amino}pyridin-2-yl)-3-(4-methylpiperazin-1-yl)propanamide] |
| 0.126 to 0.316 | CN1CCN(CCC(=O)Nc2cc(Nc3cc(-c4cc(Cl)ccc4F)nnc3[S+](C)[O-])ccn2)CC1 (centres unmarked) [Example 17, N-(4-{[6-(5-chloro-2-fluorophenyl)-3-methanesulfinylpyridazin-4-yl]amino}pyridin-2-yl)-3-(4-methylpiperazin-1-yl)propanamide] |
| 0.126 to 0.316 | CN1CCN(CCC(=O)Nc2cc(Nc3cc(-c4cc(Cl)ccc4F)nnc3N3CCO[C@@H](C(=O)O)C3)ccn2)CC1 (stereo in doubt) [Example 134, 4-[6-(5-chloro-2-fluorophenyl)-4-({2-[3-(4-methylpiperazin-1-yl)propanamido]pyridin-4-yl}amino)pyridazin-3-yl]morpholine-2-carboxylate lithium salt] |
| ≤ 0.1 | O=C(Nc1cc(Nc2cc(-c3cc(Cl)ccc3F)nnc2OCCN2CCCC2)ccn1)C1CC1 [Example 54, N-(4-{[6-(5-chloro-2-fluorophenyl)-3-[2-(pyrrolidin-1-yl)ethoxy]pyridazin-4-yl]amino}pyridin-2-yl)cyclopropanecarboxamide] |
| 0.126 to 0.316 | CN1CCCN([C@H]2C[C@@H](C(=O)Nc3cc(Nc4cc(-c5cc(Cl)ccc5F)nnc4SCCO)ccn3)C2)CC1 [Example 155, Cis N-(4-{[6-(5-chloro-2-fluorophenyl)-3-[(2-hydroxyethyl)sulfanyl]pyridazin-4-yl]amino}pyridin-2-yl)-3-(4-methyl-1,4-diazepan-1-yl)cyclobutane-1-carboxamide] |
| 0.398 to 3.16 | Nc1cc(Nc2cc(-c3cc(Cl)ccc3F)nnc2OCC(F)(F)F)ccn1 [Example 49, N4-[6-(5-chloro-2-fluorophenyl)-3-(2,2,2-trifluoroethoxy)pyridazin-4-yl]pyridine-2,4-diamine] |
